Reference: BindingDB's records for doi:10.1124/jpet.102.035899 (University of Miami, 2002)
“And” between values parts separate entries of the source, which are not always exact repeats. Equal entries are not always repeated.

What was measured:
[1] = target: neuronal acetylcholine receptor subunit alpha-2 (Xenopus tropicalis, UniProt A0A6I8T284)
[2] = target: cholinergic receptor, nicotinic, alpha 1 (Muscle) isoform X1 (Xenopus sp., UniProt F6RLM5)
[3] = target: neuronal acetylcholine receptor subunit alpha-4 (Xenopus sp., UniProt A9JRM3)
[4] = target: Cholinergic receptor nicotinic alpha 5 subunit (Xenopus sp., UniProt F7ELS1)
[5] = target: Cholinergic receptor, nicotinic alpha 1 (Xenopus sp., UniProt F6RLA9)
Cholinergic receptor, nicotinic alpha 1, sequence (F6RLA9 whole entry): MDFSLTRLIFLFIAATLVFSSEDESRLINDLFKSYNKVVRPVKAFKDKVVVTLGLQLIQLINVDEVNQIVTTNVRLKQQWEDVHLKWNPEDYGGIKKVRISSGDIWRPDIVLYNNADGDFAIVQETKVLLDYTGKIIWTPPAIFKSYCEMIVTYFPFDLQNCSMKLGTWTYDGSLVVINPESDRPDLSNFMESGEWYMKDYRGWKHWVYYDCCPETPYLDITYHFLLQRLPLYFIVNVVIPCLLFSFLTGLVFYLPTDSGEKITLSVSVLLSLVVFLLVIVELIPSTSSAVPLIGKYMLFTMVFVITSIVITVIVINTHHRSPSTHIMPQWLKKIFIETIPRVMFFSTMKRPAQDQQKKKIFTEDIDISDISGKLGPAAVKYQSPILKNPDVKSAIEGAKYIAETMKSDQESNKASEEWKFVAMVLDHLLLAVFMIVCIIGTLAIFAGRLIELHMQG

Cholinergic receptor nicotinic alpha 5 subunit, sequence (F7ELS1 whole entry): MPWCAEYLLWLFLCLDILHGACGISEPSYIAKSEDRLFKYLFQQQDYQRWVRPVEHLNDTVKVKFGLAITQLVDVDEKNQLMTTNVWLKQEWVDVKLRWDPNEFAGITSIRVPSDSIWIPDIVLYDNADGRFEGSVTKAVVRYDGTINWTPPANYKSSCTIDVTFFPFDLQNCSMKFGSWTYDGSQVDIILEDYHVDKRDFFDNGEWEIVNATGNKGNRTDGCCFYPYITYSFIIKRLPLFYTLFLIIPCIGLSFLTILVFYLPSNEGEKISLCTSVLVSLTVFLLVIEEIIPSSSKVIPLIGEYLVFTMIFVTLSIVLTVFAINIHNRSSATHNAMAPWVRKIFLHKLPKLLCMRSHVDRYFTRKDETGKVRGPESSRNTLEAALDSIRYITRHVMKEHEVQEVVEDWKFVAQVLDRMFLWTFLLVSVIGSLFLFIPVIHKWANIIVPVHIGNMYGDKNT
neuronal acetylcholine receptor subunit alpha-4, sequence (A9JRM3 whole entry): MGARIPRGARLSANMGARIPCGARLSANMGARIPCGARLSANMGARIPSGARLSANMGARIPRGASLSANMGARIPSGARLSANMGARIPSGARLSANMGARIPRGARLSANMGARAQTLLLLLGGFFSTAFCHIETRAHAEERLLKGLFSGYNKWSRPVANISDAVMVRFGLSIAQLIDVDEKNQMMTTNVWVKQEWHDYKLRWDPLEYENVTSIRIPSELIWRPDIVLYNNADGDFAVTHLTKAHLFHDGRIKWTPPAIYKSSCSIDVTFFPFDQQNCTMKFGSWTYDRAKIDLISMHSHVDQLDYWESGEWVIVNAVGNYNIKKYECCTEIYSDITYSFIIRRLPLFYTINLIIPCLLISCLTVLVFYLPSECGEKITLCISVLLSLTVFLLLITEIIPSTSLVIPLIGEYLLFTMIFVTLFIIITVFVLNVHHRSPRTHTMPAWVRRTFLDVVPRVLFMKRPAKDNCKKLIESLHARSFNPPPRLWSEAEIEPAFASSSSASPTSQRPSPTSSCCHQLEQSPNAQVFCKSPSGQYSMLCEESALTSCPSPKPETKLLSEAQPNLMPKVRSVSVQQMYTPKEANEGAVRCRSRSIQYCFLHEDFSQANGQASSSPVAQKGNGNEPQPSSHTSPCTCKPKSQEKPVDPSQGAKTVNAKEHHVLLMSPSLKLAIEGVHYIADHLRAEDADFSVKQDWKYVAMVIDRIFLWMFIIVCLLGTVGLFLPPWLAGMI
neuronal acetylcholine receptor subunit alpha-2, sequence (A0A6I8T284 whole entry, canonical isoform): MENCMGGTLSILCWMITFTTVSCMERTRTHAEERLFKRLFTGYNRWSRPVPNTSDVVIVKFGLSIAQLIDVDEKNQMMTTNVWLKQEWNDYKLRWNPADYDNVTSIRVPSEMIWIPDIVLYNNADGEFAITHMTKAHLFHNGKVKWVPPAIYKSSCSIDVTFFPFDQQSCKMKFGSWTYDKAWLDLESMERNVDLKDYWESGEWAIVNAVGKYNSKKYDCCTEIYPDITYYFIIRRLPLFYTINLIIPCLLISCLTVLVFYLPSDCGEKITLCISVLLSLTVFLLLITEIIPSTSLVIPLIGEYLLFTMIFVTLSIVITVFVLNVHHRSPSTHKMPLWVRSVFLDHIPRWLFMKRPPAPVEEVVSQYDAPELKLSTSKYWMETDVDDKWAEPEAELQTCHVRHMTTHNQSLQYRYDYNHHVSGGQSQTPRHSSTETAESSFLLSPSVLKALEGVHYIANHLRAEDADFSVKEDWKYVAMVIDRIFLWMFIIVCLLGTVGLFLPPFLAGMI
cholinergic receptor, nicotinic, alpha 1 (Muscle) isoform X1, sequence (F6RLM5 whole entry, canonical isoform): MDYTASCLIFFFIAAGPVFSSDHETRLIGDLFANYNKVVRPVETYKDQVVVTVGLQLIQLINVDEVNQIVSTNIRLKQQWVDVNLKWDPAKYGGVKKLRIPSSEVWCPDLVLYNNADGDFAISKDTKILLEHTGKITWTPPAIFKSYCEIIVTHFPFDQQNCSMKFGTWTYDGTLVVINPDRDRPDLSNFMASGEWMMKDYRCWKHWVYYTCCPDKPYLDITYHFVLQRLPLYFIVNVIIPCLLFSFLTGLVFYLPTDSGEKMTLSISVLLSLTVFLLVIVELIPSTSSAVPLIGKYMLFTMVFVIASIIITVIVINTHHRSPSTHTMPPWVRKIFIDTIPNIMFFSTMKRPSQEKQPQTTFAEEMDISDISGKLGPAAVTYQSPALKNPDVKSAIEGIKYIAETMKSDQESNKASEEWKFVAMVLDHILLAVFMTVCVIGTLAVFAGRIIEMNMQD

SMILES	Ki [1]	Ki [2]	Ki [3]	Ki [4]	Ki [5]
O=c1ccc([C@H]2CC3CCC2N3)c[nH]1 (some centres not stated)	100 nM	100 nM	100 nM		
Clc1ccc([C@H]2CC3CCC2N3)cn1 (stereo partly drawn) [2-(6-Chloro-pyridin-3-yl)-7-aza-bicyclo[2.2.1]heptane(+/-) epibatidine]	87 nM				
Brc1ccc([C@H]2CC3CCC2N3)cn1 (some centres not stated) [NBEP]	0.013 nM and 0.055 nM	0.004 nM	0.01 nM	0.22 nM	0.044 nM
CN(C)c1ccc([C@H]2CC3CCC2N3)cn1 (some centres not stated) [NDMNEP]	100 nM	100 nM	100 nM		
c1cncc([C@H]2CC3CCC2N3)c1 (some centres not stated) [NEP]		0.0031 nM	0.0085 nM	11 nM	3.2 nM
Fc1ccc([C@H]2CC3CCC2N3)cn1 (some centres not stated) [NFEP]		0.0038 nM	0.0092 nM	2.1 nM	0.48 nM
Nc1ccc([C@H]2CC3CCC2N3)cn1 (some centres not stated) [NNEP]		0.077 nM	0.35 nM	7.2 nM	4.3 nM
O=S(=O)(Oc1ccc([C@H]2CC3CCC2N3)cn1)C(F)(F)F (some centres not stated) [NTEP]	10 nM	100 nM	100 nM		
